pKi: −log10 of the molar value.
Assays:
Assay in all cases: Enzyme Inhibition Measurements
[1] = molecular target: Cathepsin D (Homo sapiens, UniProt P07339)
Description: (§1) Enzyme activities were assayed by monitoring the hydrolysis of substrate in the presence or absence of inhibitor compounds. The hydrolysis was recorded as the increase in fluorescence intensity over a 10 min time period. IC50 values were obtained by assuming competitive inhibition and fitting the dose response data to the equation (Vi/V0) =1/ (1 + [I]/IC50)). The Ki was calculated by using Ki = IC50/ (1 + [S]/Km), and a Km value determined according to Michaelis-Menten.

[2] = molecular target: Plasmepsin I (Plasmodium falciparum, UniProt P39898)
Plasmepsin I, sequence (P39898 whole entry): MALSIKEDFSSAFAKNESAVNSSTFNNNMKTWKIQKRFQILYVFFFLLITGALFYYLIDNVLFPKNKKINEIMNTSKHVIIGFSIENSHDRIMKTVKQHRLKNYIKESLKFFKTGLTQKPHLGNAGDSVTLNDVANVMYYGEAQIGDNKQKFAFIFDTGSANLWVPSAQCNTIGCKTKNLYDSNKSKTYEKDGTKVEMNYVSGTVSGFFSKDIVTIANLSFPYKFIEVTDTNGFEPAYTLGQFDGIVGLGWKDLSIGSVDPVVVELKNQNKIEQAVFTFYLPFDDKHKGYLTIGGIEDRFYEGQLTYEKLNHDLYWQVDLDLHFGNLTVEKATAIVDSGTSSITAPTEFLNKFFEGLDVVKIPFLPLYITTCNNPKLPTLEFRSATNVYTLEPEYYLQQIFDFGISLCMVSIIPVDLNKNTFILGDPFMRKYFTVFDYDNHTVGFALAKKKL
Description: as §1

[3] = molecular target: Plasmepsin II (Plasmodium falciparum (isolate HB3), UniProt P46925); settings: pH 4.5; 22 °C
Plasmepsin II, sequence (P46925 whole entry): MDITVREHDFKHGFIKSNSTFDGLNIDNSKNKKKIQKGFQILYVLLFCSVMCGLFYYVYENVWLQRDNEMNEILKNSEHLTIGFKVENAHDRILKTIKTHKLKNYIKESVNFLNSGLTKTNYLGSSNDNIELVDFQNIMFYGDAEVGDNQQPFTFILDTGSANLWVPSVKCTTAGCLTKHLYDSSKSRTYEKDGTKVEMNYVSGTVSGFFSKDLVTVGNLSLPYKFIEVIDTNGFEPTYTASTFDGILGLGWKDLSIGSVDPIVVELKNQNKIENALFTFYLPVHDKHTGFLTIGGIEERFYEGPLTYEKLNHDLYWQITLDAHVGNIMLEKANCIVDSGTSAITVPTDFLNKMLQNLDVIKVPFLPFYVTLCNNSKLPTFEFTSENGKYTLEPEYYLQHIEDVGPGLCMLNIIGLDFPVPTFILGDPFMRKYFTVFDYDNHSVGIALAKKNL
Description: as §1

Cathepsin D, sequence (P07339 65-162 limits assumed): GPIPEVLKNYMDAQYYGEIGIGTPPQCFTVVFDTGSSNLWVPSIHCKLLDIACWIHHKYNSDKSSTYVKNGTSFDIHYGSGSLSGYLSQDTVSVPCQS
Cathepsin D, sequence (P07339 169-412 limits assumed): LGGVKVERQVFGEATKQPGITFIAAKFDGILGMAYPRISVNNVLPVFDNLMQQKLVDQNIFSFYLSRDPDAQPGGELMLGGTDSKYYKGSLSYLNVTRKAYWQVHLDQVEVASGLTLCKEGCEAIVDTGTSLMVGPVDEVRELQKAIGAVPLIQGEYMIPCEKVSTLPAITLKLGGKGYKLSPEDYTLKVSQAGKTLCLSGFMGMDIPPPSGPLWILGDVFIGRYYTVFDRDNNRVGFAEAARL

**Q.** What does the source list for CC(C)[C@H](NC(=O)c1ccccn1)C(=O)N[C@@H](COCc1ccc(Br)cc1)[C@@H](O)CC(=O)NCC1CCCCC1 [(3S,4S)-5-[(4-bromophenyl)methoxy]-N-(cyclohexylmethyl)-3-hydroxy-4-[(2S)-3-methyl-2-(pyridin-2-ylformamido)butanamido]pentanamide]?
**A.** pKi [1]: 6.23; pKi [2]: 8.41; pKi [3]: 7.39

— BindingDB's records for doi:10.1021/jm031106i (Linkoping University, 2004)
